Experiments:
Type in all cases: biochemical
human IP6K3 = biological target: T1, human IP6K3 (Homo sapiens, UniProt Q96PC2); test: IP6K enzyme inhibitory assay (ADP-Glo Kinase Assay), human IP6K3; settings: compound concentration 0.1 μM; read-out: ADP-Glo method inhibitory rate (%) human IP6K3
T1 construct: human IP6K3 (1-410) gene; made in house; host or cells: BL21 (DE3) Escherichia coli
T1 sequence (Q96PC2 1-410): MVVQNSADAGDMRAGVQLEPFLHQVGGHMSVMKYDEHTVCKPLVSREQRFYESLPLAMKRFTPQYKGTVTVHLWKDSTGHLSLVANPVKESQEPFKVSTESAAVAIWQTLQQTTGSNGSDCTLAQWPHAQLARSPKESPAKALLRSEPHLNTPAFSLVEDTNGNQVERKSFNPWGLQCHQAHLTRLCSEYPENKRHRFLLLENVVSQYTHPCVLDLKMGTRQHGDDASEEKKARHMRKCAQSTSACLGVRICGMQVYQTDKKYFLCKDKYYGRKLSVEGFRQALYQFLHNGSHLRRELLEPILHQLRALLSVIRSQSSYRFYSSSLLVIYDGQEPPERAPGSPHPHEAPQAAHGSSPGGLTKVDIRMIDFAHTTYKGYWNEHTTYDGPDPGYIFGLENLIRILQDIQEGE
Summary of the method: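 Recombinant human IP6K (IP6K3 residues 1-410, E. coli, Ni-NTA purified) incubated with compound in 20 mM HEPES pH 7.5, 6 mM MgCl2, 0.01% Tween-20, 1 mM DTT for 60 min at room temperature. ADP formed read as luminescence by ADP-Glo.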

human IP6K1 = biological target: T2, human IP6K1 (Homo sapiens, UniProt Q92551); test: IP6K enzyme inhibitory assay (ADP-Glo Kinase Assay), human IP6K1; settings: compound concentration 0.1 μM; read-out: ADP-Glo method inhibitory rate (%) human IP6K1
T2 construct: human IP6K1 (1-441) gene; GST; made in house; host or cells: Sf-9 insect cells
Summary of the method: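 Inhibition of human IP6K1 was determined with Promega's ADP-Glo Kinase Assay in 384 well plates. Test compound diluted in assay buffer (20 mM HEPES (pH 7.5), 6 mM MgCl2, 0.01% Tween-20, 1 mM DTT) was added at 2 μL, then 2 μL of enzyme started the reaction for 60 min at room temperature. Next came 3 μL ADP-Glo solution for 30 min and 6 μL Kinase-Detection solution for 60 min. Luminescence was read on an Envision plate reader.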

human IP6K2 = biological target: T3, human IP6K2 (Homo sapiens, UniProt Q9UHH9); test: IP6K enzyme inhibitory assay (ADP-Glo Kinase Assay), human IP6K2; settings: compound concentration 0.1 μM; read-out: ADP-Glo method inhibitory rate (%) human IP6K2
T3 construct: human IP6K2 (1-426) gene; GST; made in house; host or cells: Sf-9 insect cells
T3 sequence (Q9UHH9 1-426): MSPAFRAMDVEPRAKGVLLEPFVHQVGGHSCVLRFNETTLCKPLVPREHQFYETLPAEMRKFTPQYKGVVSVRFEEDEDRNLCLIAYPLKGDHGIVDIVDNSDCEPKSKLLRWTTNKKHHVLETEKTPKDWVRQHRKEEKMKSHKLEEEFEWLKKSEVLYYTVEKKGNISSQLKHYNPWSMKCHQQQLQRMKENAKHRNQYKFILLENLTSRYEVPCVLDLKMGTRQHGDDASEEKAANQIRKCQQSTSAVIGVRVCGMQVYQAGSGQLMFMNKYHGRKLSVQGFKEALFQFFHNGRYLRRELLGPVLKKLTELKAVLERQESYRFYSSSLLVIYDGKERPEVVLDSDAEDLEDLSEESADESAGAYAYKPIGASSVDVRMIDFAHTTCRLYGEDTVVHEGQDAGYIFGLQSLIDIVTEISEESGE
Summary of the method: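 The inhibitory activity against human IP6K2 was measured with Promega's ADP-Glo Kinase Assay in 384 well plates. Test compound, diluted in assay buffer (20 mM HEPES (pH 7.5), 6 mM MgCl2, 0.01% Tween-20, 1 mM DTT), was added at 2 μL. Adding 2 μL of diluted enzyme started the reaction, which ran for 60 min at room temperature. Next, 3 μL ADP-Glo solution (30 min) and 6 μL Kinase-Detection solution (60 min) were added, and luminescence was read on an Envision plate reader.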

T2 sequence (Q92551 whole entry): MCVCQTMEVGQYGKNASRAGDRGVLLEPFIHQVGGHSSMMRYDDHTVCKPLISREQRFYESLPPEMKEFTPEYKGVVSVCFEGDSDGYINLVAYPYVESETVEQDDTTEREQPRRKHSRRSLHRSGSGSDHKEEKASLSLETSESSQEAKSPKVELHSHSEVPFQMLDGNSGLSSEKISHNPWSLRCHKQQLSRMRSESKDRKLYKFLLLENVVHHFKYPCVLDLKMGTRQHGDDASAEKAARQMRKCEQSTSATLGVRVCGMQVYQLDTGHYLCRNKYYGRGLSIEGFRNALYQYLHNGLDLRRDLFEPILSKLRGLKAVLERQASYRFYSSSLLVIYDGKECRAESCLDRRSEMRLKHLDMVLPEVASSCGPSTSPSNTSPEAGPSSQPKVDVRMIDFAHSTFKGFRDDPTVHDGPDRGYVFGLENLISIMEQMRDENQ

inhibition at 0.1 µM (human IP6K3) [%] | inhibition at 0.1 µM (human IP6K1) [%] | inhibition at 0.1 µM (human IP6K2) [%] | SMILES
96 | 99 | 100 | O=C(O)c1ccc2c(c1)[C@]1(CC[C@@H](Oc3ccc(Cl)cc3F)CC1)C(=O)N2 [Example 66, (1r,4r)-4-(4-chloro-2-fluorophenoxy)-2′-oxo-1′,2′-dihydrospiro[cyclohexane-1,3′-indole]-5′-carboxylic acid]
97 | 93 | 98 | O=C(O)c1ccc2c(c1)[C@]1(CC[C@@H](Oc3ccc(F)c(Cl)c3)CC1)C(=O)N2 [Example 67, (1r,4r)-4-(3-chloro-4-fluorophenoxy)-2′-oxo-1′,2′-dihydrospiro[cyclohexane-1,3′-indole]-5′-carboxylic acid]
98 | 93 | 98 | O=C(O)c1ccc2c(c1)[C@]1(CC[C@@H](Oc3ccc(F)cc3Cl)CC1)C(=O)N2 [Example 68, (1r,4r)-4-(2-chloro-4-fluorophenoxy)-2′-oxo-1′,2′-dihydrospiro[cyclohexane-1,3′-indole]-5′-carboxylic acid]
96 | 100 | 100 | O=C(O)c1ccc2c(c1)[C@]1(CC[C@@H](Oc3ccc(Cl)c(F)c3)CC1)C(=O)N2 [Example 69, (1r,4r)-4-(4-chloro-3-fluorophenoxy)-2′-oxo-1′,2′-dihydrospiro[cyclohexane-1,3′-indole]-5′-carboxylic acid]
99 | 99 | 99 | COc1ccc(O[C@H]2CC[C@@]3(CC2)C(=O)Nc2ccc(C(=O)O)cc23)c(C#N)c1 [Example 70, (1r,4r)-4-(2-cyano-4-methoxyphenoxy)-2′-oxo-1′,2′-dihydrospiro[cyclohexane-1,3′-indole]-5′-carboxylic acid]
95 | 88 | 90 | N#Cc1cc(O[C@H]2CC[C@@]3(CC2)C(=O)Nc2ccc(C(=O)O)cc23)ccc1Cl [Example 71, (1r,4r)-4-(4-chloro-3-cyanophenoxy)-2′-oxo-1′,2′-dihydrospiro[cyclohexane-1,3′-indole]-5′-carboxylic acid]
97 | 99 | 97 | N#Cc1ccc(O[C@H]2CC[C@@]3(CC2)C(=O)Nc2ccc(C(=O)O)cc23)c(Cl)c1 [Example 72, (1r,4r)-4-(2-chloro-4-cyanophenoxy)-2′-oxo-1′,2′-dihydrospiro[cyclohexane-1,3′-indole]-5′-carboxylic acid]
91 | 98 | 97 | N#Cc1ccc(O[C@H]2CC[C@@]3(CC2)C(=O)Nc2ccc(C(=O)O)cc23)cc1Cl [Example 73, (1r,4r)-4-(3-chloro-4-cyanophenoxy)-2′-oxo-1′,2′-dihydrospiro[cyclohexane-1,3′-indole]-5′-carboxylic acid]
92 | 93 | 92 | O=C(O)c1ccc2c(c1)[C@]1(CC[C@@H](Oc3ccccc3C(F)(F)F)CC1)C(=O)N2 [Example 74, (1r,4r)-2′-oxo-4-(2-(trifluoromethyl)phenoxy)-1′,2′-dihydrospiro[cyclohexane-1,3′-indole]-5′-carboxylic acid]
89 | 89 | 94 | O=C(O)c1ccc2c(c1)[C@]1(CC[C@@H](Oc3cccc(C(F)(F)F)c3)CC1)C(=O)N2 [Example 75, (1r,4r)-2′-oxo-4-(3-(trifluoromethyl)phenoxy)-1′,2′-dihydrospiro[cyclohexane-1,3′-indole]-5′-carboxylic acid]
86 | 81 | 86 | O=C(O)c1ccc2c(c1)[C@]1(CC[C@@H](Oc3cc(F)cc(C(F)(F)F)c3)CC1)C(=O)N2 [Example 76, (1r,4r)-4-(3-fluoro-5-(trifluoromethyl)phenoxy)-2′-oxo-1′,2′-dihydrospiro[cyclohexane-1,3′-indole]-5′-carboxylic acid]
